Values of other authors in patent US20020082283A1, “Nitrogen-containing compounds and their use as glycine transport inhibitors” (Gliatech, Inc., priority 2000, published 2002).

Tested on: NMDA receptor
Conditions: in vitro at concentrations at which clinical efficacy is seen

For O=C(CCCN1CCC(O)(c2ccc(Cl)cc2)CC1)c1ccc(F)cc1 [haloperidol], the “increase in NMDA receptor activity” value is given as ~40%.
